# How the values were obtained:
# Test in all cases: MIC, NCCLS broth microdilution
# Assay type in all cases: cell-based
# Acinetobacter sp. J2 = settings: Acinetobacter baumannii J2; for MIC of antibiotic: antibiotic alone, no inhibitor
# [1] = system: Pseudomonas aeruginosa MK1184; settings: for MIC of antibiotic: antibiotic alone, no inhibitor
# [2] = system: Pseudomonas aeruginosa 1973E; settings: for MIC of antibiotic: antibiotic alone, no inhibitor
# Experimental: Antimicrobial activity of the compounds and of their combinations was determined against a selection of organisms according to the standard procedures described by the National Committee for Clinical Laboratory Standards (National Committee for Clinical Laboratory. Standards (2000). Methods for Dilution Antimicrobial Susceptibility Tests for Bacteria That Grow Aerobically-Fifth Edition: Approved Standard M7-A5. NCCLS, Wayne, Pa., USA).
# In all cases the final concentration of DMSO incubated with the bacteria is less than or equal to 1%. […] Plates were incubated overnight at an appropriate temperature (30° C. or 37° C.) and optical densities assessed by eye. The MIC value is defined as the lowest compound concentration completely inhibiting visible growth of the test organism. When combinations between compounds of formula I with compounds of formula II and are evaluated the compounds of formula I are tested in dilution series as described above while the compounds of formula II and III-XIII were present in all wells at a constant concentration of 4 μg/mL each.
# Enterobacter cloacae P99 = settings: for MIC of antibiotic: antibiotic alone, no inhibitor
# [3] = system: Klebsiella pneumoniae CF104; settings: for MIC of antibiotic: antibiotic alone, no inhibitor
# Serratia marcescens S6 = settings: for MIC of antibiotic: antibiotic alone, no inhibitor
# [4] = system: Stenotrophomonas malthophilia 1AC736; settings: Stenotrophomonas maltophilia 1AC736; for MIC of antibiotic: antibiotic alone, no inhibitor
SMILES,MIC of antibiotic (Acinetobacter sp. J2),MIC of antibiotic at fixed inhibitor concentration of 4 mg/L (Acinetobacter sp. J2; with 102 and clavulanate),MIC of antibiotic at fixed inhibitor concentration of 4 mg/L (Acinetobacter sp. J2; with 324 and clavulanate),MIC of antibiotic [1],MIC of antibiotic at fixed inhibitor concentration of 4 mg/L ([1]; with 102 and clavulanate),MIC of antibiotic at fixed inhibitor concentration of 4 mg/L ([1]; with 324 and clavulanate),MIC of antibiotic [2],MIC of antibiotic at fixed inhibitor concentration of 4 mg/L ([2]; with 102 and clavulanate),MIC of antibiotic at fixed inhibitor concentration of 4 mg/L ([2]; with 324 and clavulanate),MIC of antibiotic (Enterobacter cloacae P99),MIC of antibiotic at fixed inhibitor concentration of 4 mg/L (Enterobacter cloacae P99; with 102 and clavulanate),MIC of antibiotic at fixed inhibitor concentration of 4 mg/L (Enterobacter cloacae P99; with 324 and clavulanate),MIC of antibiotic [3],MIC of antibiotic at fixed inhibitor concentration of 4 mg/L ([3]; with 102 and clavulanate),MIC of antibiotic at fixed inhibitor concentration of 4 mg/L ([3]; with 324 and clavulanate),MIC of antibiotic (Serratia marcescens S6),MIC of antibiotic at fixed inhibitor concentration of 4 mg/L (Serratia marcescens S6; with 102 and clavulanate),MIC of antibiotic at fixed inhibitor concentration of 4 mg/L (Serratia marcescens S6; with 324 and clavulanate),MIC of antibiotic [4],MIC of antibiotic at fixed inhibitor concentration of 4 mg/L ([4]; with 102 and clavulanate),other results
"C[C@H](ON1C(=O)[C@@H](NC(=O)/C(=N\OCc2cc(=O)c(O)cn2O)c2csc(N)n2)[C@@H]1C)C(=O)O [Compound 23, (2S)-2-((3S,4S)-3-{(2Z)-2-(2-amino(1,3-thiazol-4-yl))-3-[(1,5-dihydroxy-4-oxo(2-hydropyridyl))methoxy]-3-azaprop-2enoylamino}-4-methyl-2-oxoazetidinyloxy)propanoic acid]",16 µg/mL,8 µg/mL,8 µg/mL,8 µg/mL,8 µg/mL,8 µg/mL,8 µg/mL,8 µg/mL,16 µg/mL,>32 µg/mL,8 µg/mL,4 µg/mL,>32 µg/mL,1 µg/mL,1 µg/mL,0.25 µg/mL,0.25 µg/mL,0.25 µg/mL,1 µg/mL,,MIC of antibiotic at fixed inhibitor concentration of 4 mg/L (Acinetobacter sp. J2; with 324 and sulbactam): 2 µg/mL; MIC of antibiotic at fixed inhibitor concentration of 4 mg/L ([1]; with 324 and sulbactam): 8 µg/mL; MIC of antibiotic at fixed inhibitor concentration of 4 mg/L ([2]; with 324 and sulbactam): 16 µg/mL; MIC of antibiotic at fixed inhibitor concentration of 4 mg/L (Enterobacter cloacae P99; with 324 and sulbactam): 8 µg/mL; MIC of antibiotic at fixed inhibitor concentration of 4 mg/L ([3]; with 324 and sulbactam): 2 µg/mL; MIC of antibiotic at fixed inhibitor concentration of 4 mg/L (Serratia marcescens S6; with 324 and sulbactam): 0.5 µg/mL
NC(=O)OCC1C(NC(=O)C(=NOCc2cc(=O)c(O)cn2O)c2csc(N)n2)C(=O)N1OS(=O)(=O)O (stereo not shown) [Compound 25],>32 µg/mL,16 µg/mL,>32 µg/mL,>32 µg/mL,4 µg/mL,8 µg/mL,16 µg/mL,4 µg/mL,8 µg/mL,>32 µg/mL,8 µg/mL,4 µg/mL,>32 µg/mL,0.5 µg/mL,0.5 µg/mL,1 µg/mL,1 µg/mL,1 µg/mL,4 µg/mL,1 µg/mL,MIC of antibiotic at fixed inhibitor concentration of 4 mg/L ([4]; with 324 and clavulanate): 1 µg/mL
CC1C(NC(=O)C(=NOCc2cc(=O)c(O)cn2O)c2csc(NC=O)n2)C(=O)N1S(=O)(=O)O (stereo not shown) [Compound 28],>32 µg/mL,>32 µg/mL,,>32 µg/mL,32 µg/mL,,>32 µg/mL,16 µg/mL,,>32 µg/mL,>32 µg/mL,,>32 µg/mL,0.5 µg/mL,,8 µg/mL,1 µg/mL,,8 µg/mL,1 µg/mL,
"C[C@H]1[C@H](NC(=O)/C(=N\OCc2cc(=O)c(O)cn2O)c2nc(N)sc2Cl)C(=O)N1OS(=O)(=O)O [Compound 29, (3S,4S)-3-{(2Z)-2-(2-amino-5-chloro(1,3-thiazol-4-yl))-3-[(1,5-dihydroxy-4-oxo(2-hydropyridyl))methoxy]-3-azaprop-2-enoylamino}-4-methyl-2-oxoazetidinyl hydroxysulfonate]",>32 µg/mL,>32 µg/mL,,>32 µg/mL,8 µg/mL,,4 µg/mL,8 µg/mL,,>32 µg/mL,0.25 µg/mL,,>32 µg/mL,0.5 µg/mL,,32 µg/mL,1 µg/mL,,1 µg/mL,0.5 µg/mL,MIC of antibiotic at fixed inhibitor concentration of 4 mg/L (Acinetobacter sp. J2; with 102 and sulbactam): 2 µg/mL; MIC of antibiotic at fixed inhibitor concentration of 4 mg/L (Acinetobacter sp. J2; with 323 and sulbactam): 2 µg/mL; MIC of antibiotic at fixed inhibitor concentration of 4 mg/L ([1]; with 102 and sulbactam): 4 µg/mL; MIC of antibiotic at fixed inhibitor concentration of 4 mg/L ([1]; with 323 and sulbactam): 8 µg/mL; MIC of antibiotic at fixed inhibitor concentration of 4 mg/L ([2]; with 102 and sulbactam): 8 µg/mL; MIC of antibiotic at fixed inhibitor concentration of 4 mg/L ([2]; with 323 and sulbactam): 8 µg/mL; MIC of antibiotic at fixed inhibitor concentration of 4 mg/L (Enterobacter cloacae P99; with 102 and sulbactam): 8 µg/mL; MIC of antibiotic at fixed inhibitor concentration of 4 mg/L (Enterobacter cloacae P99; with 323 and sulbactam): 8 µg/mL; MIC of antibiotic at fixed inhibitor concentration of 4 mg/L ([3]; with 102 and sulbactam): 2 µg/mL; MIC of antibiotic at fixed inhibitor concentration of 4 mg/L ([3]; with 323 and sulbactam): 2 µg/mL; MIC of antibiotic at fixed inhibitor concentration of 4 mg/L (Serratia marcescens S6; with 102 and sulbactam): 8 µg/mL; MIC of antibiotic at fixed inhibitor concentration of 4 mg/L (Serratia marcescens S6; with 323 and sulbactam): 8 µg/mL; MIC of antibiotic at fixed inhibitor concentration of 4 mg/L ([4]; with 102 and sulbactam): 1 µg/mL; MIC of antibiotic at fixed inhibitor concentration of 4 mg/L ([4]; with 323 and sulbactam): 1 µg/mL

# From US20160122320A1, “USEFUL COMBINATIONS OF MONOBACTAM ANTIBIOTICS WITH BETA-LACTAMASE INHIBITORS” (Basilea Pharmaceutica AG, priority 2005, published 2016)
